According to PMC7684313, “In vitro and in vivo pharmacological activity of minor cannabinoids isolated from Cannabis sativa” (Scientific Reports, 2020):
Read-outs that look alike come from different tables or passages of the source. Marks after values point to notes of the source that are not given here.

How the values were obtained:
hCB2R [1] = molecular target: T1, hCB2R (Homo sapiens, UniProt P34972); assay: Ligand bias between cAMP inhibition and βarrestin2 recruitment at hCB2R (operational model); type: cell-based; design: expressed in transfected cells; membranes; conditions: ∆∆LogR > 0 bias for inhibition of cAMP, < 0 bias for βarrestin2; CP55,940 reference agonist
T1 sequence (P34972 whole entry): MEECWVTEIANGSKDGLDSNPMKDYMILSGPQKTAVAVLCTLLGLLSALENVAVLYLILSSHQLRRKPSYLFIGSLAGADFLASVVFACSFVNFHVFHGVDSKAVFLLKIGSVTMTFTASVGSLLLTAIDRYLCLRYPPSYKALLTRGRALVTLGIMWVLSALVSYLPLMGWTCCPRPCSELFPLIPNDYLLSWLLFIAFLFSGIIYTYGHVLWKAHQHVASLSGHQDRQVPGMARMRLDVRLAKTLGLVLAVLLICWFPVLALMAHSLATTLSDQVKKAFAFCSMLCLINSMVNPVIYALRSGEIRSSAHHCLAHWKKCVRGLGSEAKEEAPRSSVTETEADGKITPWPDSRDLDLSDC
Procedure: (§1) Figure 8 Analysis of ligand bias for phytocannabinoids at hCB1R (a) and hCB2R (b).
(§2) Concentration–response curves (CRC) were fit using non-linear regression with variable slope (4 parameters) and used to calculate EC50, Emin, and Emax (GraphPad, Prism, v. 8.0). […] In vivo data are presented as % MPE for catalepsy (MPE = 60 s) and anti-nociception (MPE = 20 s), °C for body temperature, and distance travelled (m) and % time in the centre quadrant in 5 min for OFT. Post-hoc analyses were performed using Tukey’s (one-way ANOVA) test. Homogeneity of variance was confirmed using Bartlett’s test. All data were evaluated for possible outliers using Grubb’s test in GraphPad.

hCB1R [2] = molecular target: T2, hCB1R (Homo sapiens, UniProt P21554); assay: biochemical; type: binding
T2 construct: expressed in transfected cells; membranes
T2 sequence (P21554 whole entry): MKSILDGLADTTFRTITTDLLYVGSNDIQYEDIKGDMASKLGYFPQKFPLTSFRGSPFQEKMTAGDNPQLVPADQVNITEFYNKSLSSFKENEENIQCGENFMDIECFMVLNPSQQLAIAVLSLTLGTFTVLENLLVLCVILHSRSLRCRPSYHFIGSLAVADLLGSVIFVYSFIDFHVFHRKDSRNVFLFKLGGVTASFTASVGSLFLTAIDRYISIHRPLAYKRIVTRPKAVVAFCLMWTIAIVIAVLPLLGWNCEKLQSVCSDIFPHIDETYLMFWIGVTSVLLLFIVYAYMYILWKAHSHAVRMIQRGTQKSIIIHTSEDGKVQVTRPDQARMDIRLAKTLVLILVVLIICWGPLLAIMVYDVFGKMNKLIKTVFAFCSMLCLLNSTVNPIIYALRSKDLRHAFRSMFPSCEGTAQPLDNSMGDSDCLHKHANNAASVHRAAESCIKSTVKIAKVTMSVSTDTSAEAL

C57BL/6 mice [3] = assay: Locomotion in the open field test (OFT); type: in vivo
Procedure: (§3) Asterisk colour matches the treatment group assessed.
as §2

hCB2R [4] = molecular target: T1, hCB2R; assay: [^3H]CP55,940 displacement from hCB2R CHO cell membranes; conditions: for hCB2R Emin: bottom of the concentration–response curve of [^3H]CP55,940 displacement, %CP55,940 response, mean ± SEM; for extent of [^3H]CP55,940 displacement from hCB2R, in words: concentration range 0.1 nM–10 µM
hCB1R [5] = molecular target: T2, hCB1R; assay: cell-based; conditions: for Emax: CHO, read-out: hCB1R Emax, recruitment of βarrestin2
hCB1R [6] = molecular target: T2, hCB1R; assay: cell-based; type: cell-based; conditions: for Emax: CHO, read-out: hCB1R Emax, inhibition of FSK-stimulated cAMP accumulation
hCB2R [7] = molecular target: T1, hCB2R; assay: biochemical
hCB2R [8] = molecular target: T1, hCB2R; assay: hCB2R-dependent inhibition of FSK-stimulated cAMP accumulation (HitHunter CHO cells); type: cell-based; design: expressed in transfected cells; membranes; conditions: for Emax: CHO
hCB1R [9] = molecular target: T2, hCB1R; assay: Ligand bias between cAMP inhibition and βarrestin2 recruitment at hCB1R (operational model); type: cell-based; conditions: ∆∆LogR > 0 bias for inhibition of cAMP, < 0 bias for βarrestin2; CP55,940 reference agonist
Procedure: as §1, §2

hCB2R [10] = molecular target: T1, hCB2R; assay: hCB2R-dependent recruitment of βarrestin2 (PathHunter CHO cells); type: cell-based; design: expressed in transfected cells; membranes; conditions: for Emax: CHO
C57BL/6 mice [11] = assay: Body temperature (tetrad); type: in vivo
Procedure: as §3, §2

C57BL/6 mice [12] = assay: Catalepsy in the ring holding assay (tetrad); type: in vivo; conditions: MPE 60 s = 100%
Procedure: as §3, §2

C57BL/6 mice [13] = assay: Nociception in the tail flick assay (tetrad); type: in vivo
Procedure: as §3, §2

C57BL/6 mice [14] = assay: Time in the centre quadrant of the OFT (anxiety-like behaviour); type: in vivo; conditions: 10 mg/kg i.p.; 1 h post-injection
Procedure: as §3, §2

[15] = 10 mg/kg i.p., 1 h post-injection
[16] = PathHunter CHO hCB1R cells, 90 min, 95% CI in brackets, read-out: hCB1R EC50, recruitment of βarrestin2
[17] = HitHunter CHO hCB1R cells, 90 min, 95% CI in brackets, read-out: hCB1R EC50, inhibition of FSK-stimulated cAMP accumulation
[18] = HitHunter CHO hCB2R cells, 90 min, 95% CI in brackets, read-out: hCB2R EC50, inhibition of FSK-stimulated cAMP accumulation
[19] = PathHunter CHO hCB2R cells, 90 min, 95% CI in brackets, read-out: hCB2R EC50, recruitment of βarrestin2
[20] = dose range 0.1–10 mg/kg i.p., 15 min post-injection
[21] = 0.1 nM–10 µM, relative to CP55,940

Structure (SMILES) | ligand bias at hCB2R (∆∆LogR), in words (hCB2R [1]) | Ki (hCB1R [2]) [nM] | extent of [^3H]CP55,940 displacement from hCB1R, in words (hCB1R [2]) | hCB1R Emin (hCB1R [2]) | total locomotion in the OFT, in words (C57BL/6 mice [3]; [15]) | hCB2R Emin (hCB2R [4]) | extent of [^3H]CP55,940 displacement from hCB2R, in words (hCB2R [4]) | Emax (hCB1R [5]) [%] | EC50 (hCB1R [5]; [16]) [nM] | Emax (hCB1R [6]) [%] | EC50 (hCB1R [6]; [17]) [nM] | Ki (hCB2R [7]) [nM] | Emax (hCB2R [8]) [%] | EC50 (hCB2R [8]; [18]) [nM] | ligand bias at hCB1R (∆∆LogR), in words (hCB1R [9]) | Emax (hCB2R [10]) [%] | EC50 (hCB2R [10]; [19]) [nM] | anti-nociceptive effect (tail flick latency), in words (C57BL/6 mice [13]; [20]) | also measured
C=C(C)[C@@H]1CCC(C)=C[C@H]1c1c(O)cc(CCCCC)c(C(=O)O)c1O [CBDa, cannabidiolic acid] | bias for inhibition of cAMP relative to βarrestin2 | > 10000 | weakly displaced [^3H]CP55,940 at concentrations ≥ 1 µM | 96 ± 6.5*^ % | Hypolocomotive responses | 30 ± 7.8 % | displaced [^3H]CP55,940 from hCB2R to an extent that was not different from CP55,940 | 0.1 ± 0.11 | > 10000 | 22 ± 1.1 | 30 | 12 | 32 ± 4.2 | 140 | bias for the inhibition of cAMP relative to βarrestin2 | 18 ± 2.5 | > 10000 |  | 
CCCCCc1cc(O)c2c(c1)OC(C)(C)[C@@H]1CCC(C)=C[C@@H]21 [∆^9-THC, ∆^9-tetrahydrocannabinol, reference compound] | bias for inhibition of cAMP relative to βarrestin2 |  |  |  |  | 7.4 ± 4.4% | displaced [^3H]CP55,940 from hCB2R to an extent that was not different from CP55,940 |  |  |  |  |  | 76 ± 8.6 |  |  | 46 ± 4.9 |  | dose-dependent increase in anti-nociceptive effects | effect on body temperature, in words (C57BL/6 mice [11]; 3 and 10 mg/kg i.p.): decreased body temperature; cataleptic response, % of maximum possible effect (MPE) (C57BL/6 mice [12]; 3 mg/kg i.p.): 17%; cataleptic response, % of maximum possible effect (MPE) (C57BL/6 mice [12]; 10 mg/kg i.p.): 100%; activity in hCB2R βarrestin2 recruitment, in words (hCB2R [10]; [21]): modest agonist activity
CCCCCc1cc(O)c2c(c1)OC(C)(CCC=C(C)C)C=C2 (stereo not shown) [CBC, cannabichromene] | bias for inhibition of cAMP relative to βarrestin2 | 11 | partially displaced | 55 ± 3.7*^ % | Hypolocomotive responses | 9.7 ± 5.9 % | displaced [^3H]CP55,940 from hCB2R to an extent that was not different from CP55,940 | 6.9 ± 0.96 | > 10000 | 68 ± 9.7 | 190 |  | 76 ± 5.4 | 7.1 | bias for the inhibition of cAMP relative to βarrestin2 | 12 ± 2.8 | > 10000 |  | anti-nociceptive effect (tail flick latency), in words (C57BL/6 mice [13]; 3 mg/kg i.p., 15 min post-injection): weak anti-nociceptive effect
CCCCCc1cc2c(c(O)c1C(=O)O)[C@@H]1C=C(C)CC[C@H]1C(C)(C)O2 [∆^9-THCa, ∆^9-tetrahydrocannabinolic acid] |  | 620 | partially displaced | 67 ± 11*^ % |  | 49 ± 7.2*^ % |  | 4.1 ± 1.5 |  | 35 ± 11 |  | 1.3 | 95 ± 1.5 |  | bias for the inhibition of cAMP relative to βarrestin2 | 15 ± 2.5 |  | dose-dependent increase in anti-nociceptive effects | time in the central quadrant of the OFT (modelled anxiolytic effect), in words (C57BL/6 mice [14]): anxiolytic-like effects; total locomotion in the OFT, in words (C57BL/6 mice [3]; 3 and 10 mg/kg i.p.): hypolocomotive effects; EC50 (hCB1R [5]): > 10000 nM; EC50 (hCB1R [6]): > 10000 nM; agonist activity in hCB1R cAMP inhibition, in words (hCB1R [6]): weak partial agonist; EC50 (hCB2R [8]): 1800 nM; agonist activity in hCB2R cAMP inhibition, in words (hCB2R [8]; [21]): weakly potent agonist; anti-nociceptive effect (tail flick latency), in words (C57BL/6 mice [13]; 3 and 10 mg/kg i.p.): anti-nociceptive; EC50 (hCB2R [10]): > 10000 nM
CCCCCCC(C)(C)c1ccc([C@@H]2C[C@H](O)CC[C@H]2CCCO)c(O)c1 [CP55,940, reference compound] |  |  |  | 0.0 ± 5.2% |  | 0.0 ± 6.2% |  |  |  |  |  |  |  |  |  |  |  |  | total locomotion in the OFT, in words (C57BL/6 mice [3]; 0.1 mg/kg i.p., 1 h post-injection): reduced total locomotion; effect on body temperature, in words (C57BL/6 mice [11]; 0.1 mg/kg i.p.): decreased body temperature; cataleptic response, % of maximum possible effect (MPE) (C57BL/6 mice [12]; 0.1 mg/kg i.p.): 25%; anti-nociceptive effect (tail flick latency), in words (C57BL/6 mice [13]; 0.1 mg/kg i.p., 15 min post-injection): anti-nociceptive effects
